Results taken from patent publication US20250027041A1, “COMPOSITION FOR INDUCING TRANSDIFFERENTIATION AND STEM CELLS TREATED THEREWITH” (YJ CERAPEUTICS INC., priority 2021, published 2025).

Experiments:
[1] = target: T1, CtBP2 (Homo sapiens, UniProt P56545); experiment: DARTS assay, CtBP2; type: binding
T1 construct: expressed in transfected cells; host or cells: human UCB-MSC, lysate
Procedure: (§1) To identify proteins binding to compounds of the present invention, YJ101 (Chemical Formula 1), YJ102 (Chemical Formula 2), and YJ103 (Chemical Formula 3), in human umbilical cord blood-derived mesenchymal stem cells (UCB-MSCs), DART assay was performed. Specifically, UCB-MSCs (Kang Stem Cell, Passage #6) were dispensed into a 100 mm culture dish and incubated in a KSB-3 medium (Cat. K3901, Kang Stem Cell) containing 10% FBS (Cat. 16000044), and then collected and washed with PBS. Thereafter, the cells were added with an IP50 lysis buffer [50 mM Tris-HCl (pH 7.4), 150 mM NaCl, 2 mM MgCl2, and 0.1% NP40], sonicated, and centrifuged at 13,000×g for 10 minutes at 4° C. to obtain the supernatant. The supernatant was added with 1/10 volume of 10×TNC buffer [500 mM Tris-HCl (pH 8.0), 500 mM NaCl, and 100 mM CaCl2)], and protein concentration was measured using a Bradford method. Thereafter, 9 μl of a cell lysate and 1 μl of YJ101 (20 or M), YJ102 (20 or 30 μM), or YJ103 (20 or 40 μM) were mixed in a microcentrifuge tube and incubated at room temperature for 1 hour. A control group was treated with 1 μl of DMSO. After incubation, 1 μl (1 mg/ml) of Pronase (Cat. 10 165 921 001, Roche) diluted to 1 mg/ml using a 1×TNC buffer was added to the microcentrifuge tube and incubated at 37° C. for 15 minutes. After incubation, ⅕ volume of a 5×SDS-PAGE loading buffer was added, heated at 100° C. for 5 minutes, and then SDS-PAGE and Coomassie blue staining were performed. In addition, UCB-MSCs were dispensed at 4×10^5 cells/ml in a 60 mm culture dish, and after 24 hours, 4 μg of FLAG-CtBP1 or FLAG-CtBP2 DNA was transfected using 4 μl of jetPRIME. After 48 hours, the cells were collected, and proteins were extracted and quantified using the same method as above. DARTS assay was performed with the cell lysate of CtBP1 and Y102 labeled with FLAG, and Western blot assay was performed with a flag antibody (Cat. F3165, Sigma).

[2] = tested on: UCB-MSCs; experiment: Tuj1 immunochemical assay, direct conversion of UCB-MSCs into ciNSC5; type: cell-based, human; conditions: 30 μM, 5 days
Procedure: Immunochemical assay was performed to confirm whether UCB-MSCs were transdifferentiated into ciNSC5, Tuj1-positive neural progenitor cells, by the compounds of the present invention, YJ101, YJ102, and YJ103. Specifically, UCB-MSCs were dispensed at 2.1×10^4 cells/well in a 12-well plate containing an 18 mm cover glass (a DMSO control group was dispensed at 3.5×10^3 cells/well). […] The culture medium was removed, washed with PBS, and then fixed with 4% paraformaldehyde at room temperature for 10 minutes. After washed three times with PBS, the cells were permeabilized with PBS-T containing 0.5% Triton X-100 for 10 minutes, washed with PBS-T three times for 10 minutes each, and then blocked with a blocking solution (PBS-T containing 5% BSA and 5% goat serum) for 1 hour. Thereafter, the cells were treated with anti-Tuj1 antibody (Cat. 801201, BioLegend) diluted 1/5000 in a blocking solution and incubated at 4° C. overnight. The next day, the cells were washed 10 times for 10 minutes each with PBS-T, and then treated with anti-mouse IgG-FITC diluted 1/500 in a blocking solution, and incubated for 1 hour in dark conditions. Next, the cells were washed 10 times for 10 minutes each with PBS-T, mounted with a mounting solution containing DAPI, and then observed with a confocal microscope.

[3] = target: T2, CtBP1 (Homo sapiens, UniProt Q13363); experiment: DARTS assay, CtBP1; type: binding; design: expressed in transfected cells; host or cells: human UCB-MSC (Kang Stem Cell), lysate
Procedure: as §1

[4] = target: T2, CtBP1; experiment: Immunoprecipitation, CtBP1 oligomerization in UCB-MSCs; type: cell-based; design: expressed in transfected cells; host or cells: human UCB-MSC; conditions: YJ102 20 μM; FLAG-CtBP1 + HA-CtBP1, 48 hours
Procedure: (§2) To determine the effect of YJ102 on the regulation of oligomerization of C-terminal Binding Proteins (CtBPs) in human UCB-MSCs, immunoprecipitation analysis was performed. Specifically, UCB-MSCs were dispensed at 4×10^5 cells/ml in a 60 mm culture dish, and the next day, FLAG-CtBP1, HA-CtBP1, FLAG-CtBP2, and HA-CtBP1 were transfected into cells using 4 μl jetPRIME. Thereafter, the cells were treated with YJ102 (stock 30 mM in DMSO) and MTOB (stock 300 mM in DMSO) at 20 μM and 300 μM, respectively (Table 1). After 48 hours of transfection, proteins were extracted in the same manner as in Example 1-1. Protein G agarose slurry was washed with PBS and blocked with 1 ml of 1% BSA, washed with PBS, and added with 1 μg of anti-HA antibody diluted with 1.5 ml of PBS and incubated at 4° C. for 2 hours. Thereafter, the cells were centrifuged at 3,000×g for 2 minutes to remove the supernatant, washed with an IP150 buffer two times, added with 1 μg of the protein extracted above, and incubated at 4° C. overnight. After incubation, the cells were centrifuged at 3,000×g for 2 minutes to remove the supernatant, washed with PBS three times, added with 50 μl of 1 mg/ml HA peptide diluted with PBS, and incubated at room temperature for 10 minutes. […]

[5] = target: T3, CtBP1-CtBP2 (Homo sapiens, UniProt P56545+Q13363); experiment: Immunoprecipitation, CtBP1-CtBP2 heteromerization in UCB-MSCs; type: cell-based; conditions: YJ102 20 μM; FLAG-CtBP2 + HA-CtBP1
T3 construct: expressed in transfected cells; host or cells: human UCB-MSC
Procedure: as §2

Structure (SMILES): CCc1ccc(N(C(=O)COC)c2nc3cc(Cl)ccc3o2)cc1 [YJ102]
- overexpressed CtBP2 protection from degradation by pronase (DARTS) ([1]; FLAG-CtBP2 transfected UCB-MSC lysate): protected
- CtBP2 protection from degradation by pronase (DARTS) ([1]; endogenous CtBP2, UCB-MSC lysate): protected
- binding to CtBP2 ([1]; human UCB-MSC): bound to CtBP1 and CtBP2
- direct conversion from UCB-MSCs to ciNSC5 [2]: induced direct conversion
- expression of Tuj1 ([2]; UCB-MSC): increased
- overexpressed CtBP1 (flag-CtBP1) protection from degradation by pronase (DARTS) ([3]; FLAG-CtBP1 transfected UCB-MSC lysate, YJ101 (20 or M), YJ102 (20 or 30 μM), YJ103 (20 or 40 μM)): protected
- CtBP1 protection from degradation by pronase (DARTS) ([3]; endogenous CtBP1, UCB-MSC lysate, YJ102 20 or 30 μM): protected
- binding to CtBP1 ([3]; human UCB-MSC): bound to CtBP1
- oligomerization of CtBP1 [4]: induced oligomerization
- CtBP1-CtBP2 heteromerization [5]: had no effect
